Results: patent US10259807B2, “1-(piperazin-1-yl)-2-([1,2,4]triazol-1-yl)-ethanone derivatives” (Idorsia Pharmaceuticals Ltd., priority 2013, dated 2019)

Columns and labels:
hERG K channel = molecular target: T1, hERG K channel (Homo sapiens, UniProt Q12809); test: hERG Q-Patch assay; type: cell-based; settings: CHO cells expressing hERG, K+ tail current 3 min after application, mean of two or three experiments
T1 construct: host or cells: CHO
Description: B) hERG Q-Patch assay: Compounds are evaluated for block of the hERG K channel using CHO cells stably expressing the hERG gene (accession number U04270, bSys, Witterswil. Switzerland) and the Patch robotic platform (Sophion, Ballerup, Denmark) in single-cell mode at room temperature. […] When the cells are ˜80% confluent (every 2-3 days), they are either split for further culture or used for electrophysiology. […] Cells are kept in suspension medium at 32-35° C. in the QPatch robot until use, at which time aliquots are transferred to the extracellular solution (in mM: NaCl 150; KCl 4; CaCl2 1.2; MgCl2 1; HEPES 10; pH 7.4 with NaOH) containing 0.3% v/v DMSO and applied to the test plates. K^+ currents are measured with the patch-voltage-clamp technique in the whole-cell configuration with the internal solution (in […]: KCl, 140; NaCl, 10; MgCl2, 1; HEPES, 10; EGTA, 5; pH=7.2 with KOH). […] K^+tail currents are produced from a holding voltage of −80 mV by a 500-ms depolarization to +20 mV followed by a 500-ms repolarization to −40 mV; tail current amplitudes are measured at the end of the repolarization to −40 mV. The pulse pattern is repeated every 10 sec during the experiment, baseline K^+ current is measured after 3 min in extracellular solution, test-solution containing compound is then applied, and K^+ current in presence of compound is measured 3 minutes after application to the cells.

[1] = Human liver microsome assay (metabolic stability); type: in vitro ADME; settings: human liver microsomes 0.5 mg/mL, compound 1 μM, 37° C., pH 7.4, NADPH-regenerating system
Description: Incubation with human liver microsomes was performed to assess metabolic stability at a single compound concentration of 1 μM. A 1 μL-aliquot of the compounds stock solutions in DMSO were added to 899 μL of 100 mM phosphate buffer (pH 7.4) containing the liver microsomes at a concentration of 0.5 mg/mL and the mixture was incubated at 37° C. in an Eppendorf thermomixer at 450 rpm. The reaction was initiated by addition of 100 μL of NADPH-regenerating system containing the glucose-6-phosphate dehydrogenase and at the pre-defined time points, 0, 1.5, 2.5, 5, 10, and 15 min, 100 μL of the incubation was transferred in 100 μL of ice-cold methanol to stop the reaction. Samples were centrifuged at 3220 g for 20 min at 4° C. and the supernatants were submitted to LC/MS-MS analysis.
Calculation of intrinsic clearance CLint:
Natural logarithm of remaining amount of compound was plotted as function of time and the slope of the line determined.
Elimination rate constant (k)=−slope
V=volume of incubation/amount of protein

human CXCR3A = molecular target: T2, human CXCR3A (Homo sapiens, UniProt P49682); test: FLIPR assay (CXCL10-induced calcium signal in CHO-K1 cells); type: cell-based; settings: CHO-K1 cells expressing human CXCR3A coupled to Galpha(16); CXCL10 agonist 20 nM; mean values
T2 construct: expressed in transfected cells; host or cells: CHO-K1
T2 sequence (P49682 1-368): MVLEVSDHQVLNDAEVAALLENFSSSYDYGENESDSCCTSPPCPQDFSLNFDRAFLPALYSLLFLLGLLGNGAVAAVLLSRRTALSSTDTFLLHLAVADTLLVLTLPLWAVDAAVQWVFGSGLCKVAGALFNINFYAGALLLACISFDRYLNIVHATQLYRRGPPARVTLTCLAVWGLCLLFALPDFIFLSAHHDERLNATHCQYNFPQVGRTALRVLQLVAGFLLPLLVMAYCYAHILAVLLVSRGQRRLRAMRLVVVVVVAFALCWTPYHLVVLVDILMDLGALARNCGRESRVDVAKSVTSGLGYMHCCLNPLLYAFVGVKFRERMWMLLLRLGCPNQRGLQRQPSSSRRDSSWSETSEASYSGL
Description: A) FLIPR assay: The bioactivity of compounds is tested in a fluorometric imaging plate reader (FLIPR: Molecular Devices) using engineered CHO-K1 cells expressing the human CXCR3A (GenBank: AY242128) coupled to a G protein (Galpha(16)). Cells are plated the day prior to bioassay in F12 medium supplemented with 10% FBS and G418 and hygromycin antibiotics to maintain recombinant selection. […] Cells are washed free of excess dye and 60 microliter of wash buffer is added. Stock solutions of test compounds are made up at a concentration of 10 mM in DMSO, and serially diluted in dilution buffer to concentrations required for inhibition dose response curves. After a 10 minute incubation period at 37° C., 10 microliters of each compound dilution are transferred from a compound plate to the plate containing the recombinant cells in the FLIPR instrument according to the manufacturer's instructions. Following basal readings, 10 microliter CXCL10 agonist at a concentration of 20 nM (from Peprotech) is added, again using the FLIPR instrument. Changes in fluorescence are monitored before and after addition of the test compounds. Emission peak values above base level after CXCL10 addition are exported after base line subtraction. The program XLfit is used to fit the data to a single site dose response curve and to calculate IC50 values. The calculated IC50 values may fluctuate depending on the daily assay performance. Fluctuations of this kind are known to those skilled in the art.

T1 sequence (Q12809 whole entry): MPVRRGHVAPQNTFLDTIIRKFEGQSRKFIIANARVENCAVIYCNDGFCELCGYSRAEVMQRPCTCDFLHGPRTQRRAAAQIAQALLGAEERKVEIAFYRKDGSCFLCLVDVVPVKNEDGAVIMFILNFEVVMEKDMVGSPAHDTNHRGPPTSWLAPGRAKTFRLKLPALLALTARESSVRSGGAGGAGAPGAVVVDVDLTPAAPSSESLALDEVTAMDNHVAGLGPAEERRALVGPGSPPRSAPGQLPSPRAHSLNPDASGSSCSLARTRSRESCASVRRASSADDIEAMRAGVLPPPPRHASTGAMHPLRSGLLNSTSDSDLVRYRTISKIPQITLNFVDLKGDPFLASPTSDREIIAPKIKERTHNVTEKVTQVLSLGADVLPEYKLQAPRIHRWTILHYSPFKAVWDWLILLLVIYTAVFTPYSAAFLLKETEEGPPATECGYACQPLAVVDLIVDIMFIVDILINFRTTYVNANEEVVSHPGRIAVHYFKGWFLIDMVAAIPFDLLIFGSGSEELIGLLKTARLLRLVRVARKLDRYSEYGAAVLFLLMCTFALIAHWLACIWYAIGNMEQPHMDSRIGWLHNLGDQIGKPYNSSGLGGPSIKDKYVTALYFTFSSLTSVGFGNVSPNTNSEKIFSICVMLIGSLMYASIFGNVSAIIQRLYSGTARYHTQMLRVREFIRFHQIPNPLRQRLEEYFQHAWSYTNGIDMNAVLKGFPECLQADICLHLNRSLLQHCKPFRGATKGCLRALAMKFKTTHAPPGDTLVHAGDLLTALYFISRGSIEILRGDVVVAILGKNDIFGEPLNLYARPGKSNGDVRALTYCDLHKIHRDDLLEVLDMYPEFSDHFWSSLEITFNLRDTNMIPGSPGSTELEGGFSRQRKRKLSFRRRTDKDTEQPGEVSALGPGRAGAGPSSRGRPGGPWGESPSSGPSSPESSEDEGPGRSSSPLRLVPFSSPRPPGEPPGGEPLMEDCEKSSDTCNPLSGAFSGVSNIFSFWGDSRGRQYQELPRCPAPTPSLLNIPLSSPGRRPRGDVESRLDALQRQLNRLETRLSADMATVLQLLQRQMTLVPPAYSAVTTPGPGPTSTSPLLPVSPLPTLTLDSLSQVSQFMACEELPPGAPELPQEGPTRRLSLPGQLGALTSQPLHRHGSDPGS

| SMILES | % block (hERG K channel; concentration 300 nM) | % block (hERG K channel; concentration 3000 nM) | microsomal CLint at 1 µM [1] | IC50 (human CXCR3A) |
| --- | --- | --- | --- | --- |
| Cc1nc(C)n(CC(=O)N2CCN(c3sc(C(F)(F)F)nc3-c3cnc(C4CC4)nc3)C[C@H]2C)n1 [Example 33, 1-{(R)-4-[4-(2-Cyclopropyl-pyrimidin-5-yl)-2-trifluoromethyl-thiazol-5-yl]-2-methyl-piperazin-1-yl}-2-(3,5-dimethyl-[1,2,4]triazol-1-yl)-ethanone] | 4% | 17% | 7 µL/min/mg | 2.9 nM |
| Cc1nc(C)n(CC(=O)N2CCN(c3sc(C(F)(F)F)nc3-c3ccc(C(F)(F)F)nc3)C[C@H]2C)n1 [Example 49, 2-(3,5-Dimethyl-[1,2,4]triazol-1-yl)-1-{(R)-2-methyl-4-[2-trifluoromethyl-4-(6-trifluoromethyl-pyridin-3-yl)-thiazol-5-yl]-piperazin-1-yl}-ethanone] | – | – | 4 µL/min/mg | 3.6 nM |
| Cc1nc(C)n(CC(=O)N2CCN(c3sc(C(F)(F)F)nc3-c3cnc(C(F)(F)F)nc3)C[C@@H]2C)n1 [Example 50, 2-(3,5-Dimethyl-[1,2,4]triazol-1-yl)-1-{(S)-2-methyl-4-[2-trifluoromethyl-4-(2-trifluoromethyl-pyrimidin-5-yl)-thiazol-5-yl]-piperazin-1-yl}-ethanone] | – | – | 11 µL/min/mg | – |
| Cc1nc(C)n(CC(=O)N2CCN(c3sc(C(F)(F)F)nc3-c3cnc(N4CCN(C)CC4)nc3)C[C@H]2C)n1 [Example 37, 2-(3,5-Dimethyl-[1,2,4]triazol-1-yl)-1-((R)-2-methyl-4-{4-[2-(4-methyl-piperazin-1-yl)-pyrimidin-5-yl]-2-trifluoromethyl-thiazol-5-yl}-piperazin-1-yl)-ethanone] | 2% | 4% | – | 4.8 nM |
| Cc1nc(C)n(CC(=O)N2CCN(c3sc(C(F)(F)F)nc3-c3cnc(OCC(F)(F)F)nc3)C[C@H]2C)n1 [Example 28, 2-(3,5-Dimethyl-[1,2,4]triazol-1-yl)-1-((R)-2-methyl-4-{4-[2-(2,2,2-trifluoro-ethoxy)-pyrimidin-5-yl]-2-trifluoromethyl-thiazol-5-yl}-piperazin-1-yl)-ethanone] | 0% | 6% | – | 2.8 nM |
| Cc1nc(C)n(CC(=O)N2CCN(c3sc(C(F)(F)F)nc3-c3ccc4c(c3)OCCO4)C[C@H]2C)n1 [Example 14, 1-{(R)-4-[4-(2,3-Dihydro-benzo[1,4]dioxin-6-yl)-2-trifluoromethyl-thiazol-5-yl]-2-methyl-piperazin-1-yl}-2-(3,5-dimethyl-[1,2,4]triazol-1-yl)-ethanone] | 5% | 14% | – | 31 nM |
| Cc1nc(C)n(CC(=O)N2CCN(c3sc(C(F)(F)F)nc3-c3ccc(F)cc3)C[C@H]2C)n1 [Example 6, 2-(3,5-Dimethyl-[1,2,4]triazol-1-yl)-1-{(R)-4-[4-(4-fluoro-phenyl)-2-trifluoromethyl-thiazol-5-yl]-2-methyl-piperazin-1-yl}-ethanone] | 11% | 51% | – | 64 nM |
| Cc1nc(C)n(CC(=O)N2CCN(c3sc(C(F)(F)F)nc3-c3ccc4c(c3)CCCO4)C[C@H]2C)n1 [Example 21, 1-[(R)-4-(4-Chroman-6-yl-2-trifluoromethyl-thiazol-5-yl)-2-methyl-piperazin-1-yl]-2-(3,5-dimethyl-[1,2,4]triazol-1-yl)-ethanone] | 1% | 12% | – | 4.7 nM |
